Experimental data from patent US12144792B2, “Therapeutic agents for neurodegenerative diseases” (priority 2016, dated 2024).

Key:
NPC patients = assay: Clinical severity score (CSS) and annual severity increment score (ASIS); assay type: in vivo, human; settings: ten NPC patients, 4.5 g/day
Text: An NPC patient's severity may be quantified by assigning a clinical severity score (CSS), which assesses various parameters of the disease and gives each parameter a score out of 5 (higher score=greater severity). See Yanjanin et al., “Linear Clinical Progression, Independent of Age of Onset, in Niemann-Pick Disease, Type C,” Am J Med Genet Part B 153B:132-140. In an untreated patient, one can typically predict how the CSS will change over time in an individual, as disease progression appears to be linear. For example, if Patient A moves from a CSS of 8 to a CSS of 12 between month 0 and month 12, it can be predicted that by month 36, the patient will have a CSS of 20. The annual severity increment score (ASIS) quantities the annual rate of change in the CSS, calculated by dividing the CSS of a patient by the patient's age. […]
Ten NPC patients were administered acetyl-leucine at 4.5 g/day over long durations. A CSS was determined at baseline, and at various time points, for eye movement, ambulation, speech, swallow, fine motor skills, cognition, memory, and seizures. An overall CSS was calculated at baseline and at each such time point by adding the individual CSS values for each parameter (eye movement, ambulation, etc.).
The ASIS at baseline and each time point was calculated using each patient's CSS and age at the time of assessment. […]

Npc1^−/− mice = assay: Gait analysis (CatWalk); assay type: in vivo, mouse; settings: 0.1 g/kg from weaning, eight weeks of age, vs untreated littermates
Procedure: Separate groups of Npc1^−/− and Npc1^+/+ mice were left untreated, as controls. Gait analysis was performed on mice at eight weeks of age using a CatWalk® 15.0 system according to manufacturer's instructions (Noldus, Nottingham, UK). Five runs were recorded per animal. CatWalk® parameters measured were: • 1. Stand Mean: average duration (s) of paws in contact with glass plate; • 2. Step Cycle: duration (s) between two consecutive contacts of the same paw; • 3. Duty Cycle: percentage of time paws in contact with plate compared with time to complete a step cycle; • 4. Step Sequence (AB): percentage of time spent walking in LF-RH-RF-LH alternating pattern (LF: left front; RH: right hind; RF: right front; LH left hind); • 5. Cadence: step per seconds in a trial; • 6. Diagonal Support: percentage of time with simultaneous contact of diagonal paws with the glass plate (RF&LH or RH&LF). Motor Function Analysis

[1] = system: amyloid precursor protein C-terminal fragments (APP-CTFs); assay: APP-CTF levels relative to total APP in the cerebellum; assay type: in vivo, mouse; settings: NPC1−/− mice, 0.1 g/kg body weight daily from 3 weeks of age; sacrificed at 8 weeks
Procedure: The Niemann-Pick Disease Type C (NPC) mouse model shares a number of pathological features with Alzheimer's disease (AD) as described herein. […] Mice were sacrificed at 8 weeks of age. Levels of amyloid precursor protein C-terminal fragments (APP-CTFs) were evaluated relative to total amyloid precursor protein (APP) levels in the cerebellum for wild type, untreated wild type NPC1^−/− mice, and AL-treated wild type NPC1^−/− mice. Levels of microtubule-associated protein 1A/1B-light chain 3-phosphatidylethanolamine conjugate (LC3-II) were also evaluated relative to levels of tubulin loading control for wild type, untreated wild type NPC1^−/− mice, and AL-treated wild type NPC1^−/− mice.

[2] = system: Hexb^−/− mouse (Sandhoff disease model); assay: Step cycle; assay type: in vivo; settings: Sandhoff mice, 0.1 g/kg from 3 weeks, 12 weeks of age
Procedure: This study made use of a mouse model of Sandhoff disease, the Hexb^−/− mouse, as described in Jeyakumar et al. (Jeyakumar, M. et al. (1999) Proc. Natl. Acad. Sci. USA 96: 6388-6393). Step cycle is the length of time taken during locomotion by a limb from the time it leaves the ground until it leaves the ground on the next occasion. Step cycle time was assessed at 12 weeks of age in untreated and acetyl-leucine treated Sandhoff model mice. Acetyl-leucine treatment constituted 0.1 g/kg body weight acetyl-leucine from 3 weeks of age.

[3] = system: patient with GM1 Gangliosidosis; assay: Case study, patient evaluation (SARA, mRDS, EQ-5D-5L); assay type: in vivo, human; settings: Ex. 6, GM1 Gangliosidosis; 1.5 then 3 g per day; after one month
Text: Before treatment was commenced, examination of the patient indicated a Scale for Assessment and Rating of Ataxia (SARA) score of 35/40, a mRDS score of 15, and a EQ-5D-5L visual scale of 50. The patient was started on therapy with acetyl-leucine at a dose of 1.5 g per day for the first week, followed by a dose of 3 g per day for the second week onwards.

CC(=O)NC(CC(C)C)C(=O)O (racemic) [acetyl-DL-leucine]
change of ASIS relative to baseline (NPC patients): all ten patients showed a reduction in ASIS | change of overall CSS over the course of the experiment (NPC patients): none of the ten patients showed an overall increase in CSS | gait properties (Npc1^−/− mice): significantly improved gait | APP-CTF levels relative to total APP in the cerebellum [1]: lowering of APP-CTFs | average step cycle time ([2]; p<0.001 vs untreated): significantly faster average step cycle times | hind step cycle time ([2]; p<0.01 vs untreated): significantly faster hind step cycle times | front step cycle time ([2]; p<0.05 vs untreated): significantly faster front step cycle times | symptoms on re-examination [3]: stable general condition, increased gait (more fluent), and stable stance in natural position
